Experiments:
[1] = tested on: LDL receptor knockout mice (B6.129S7-Ldlrtm1Her); assay: Example 11 LDL receptor knockout mice; type: in vivo, mouse; settings: low fat control diet (D12328) with vs without test article
Source text: Mice lack an enzyme found in humans, cholesterol ester transfer protein (CETP), which is responsible for the transfer of cholesterol from high density lipoproteins (HDL) to the ApoB-containing lipoproteins such as very low density lipoproteins (VLDL) and low density lipoproteins (LDL). Consequently, LDL cholesterol levels in wild-type mice are very low compared to those seen in humans. The low density lipoprotein receptor (LDLR) is involved with clearing LDL and lipoprotein remnants containing apoE. If the LDLR is inactivated, LDL cholesterol levels rise to levels seen in humans. On a normal rodent diet, the LDL cholesterol levels in LDLR deficient mice are elevated compared to wild-type mice. […]
In these studies and the accompanying figures, Diet D12328 from Research Diets is referred to as the “Low Fat” or Control diet, while Diet D12079B from Research Diets is referred to as the “Western” diet. […] The Test Article content was calculated such that ad libitum consumption by the animals would deliver doses (in mg of Test Article per Kg animal weight per day) approximating those listed in Table 6.
Animals were maintained on the diets for twelve weeks. Body weights were recorded weekly. […] The serum was analyzed for total cholesterol, LDL cholesterol, HDL cholesterol, and triglycerides (TG). […]

[2] = biological target: T1, mouse group 1B PLA2 (mps PLA2) (Mus musculus, UniProt Q9Z0Y2); assay: Example 8 fluorimetric PLA2 inhibition assay (PPyrPM), mouse enzyme; type: biochemical
T1 construct: made in house; host or cells: E. coli
Source text: (§1) In this example, a fluorimetric assay procedure was used to evaluate the indole and indole-related compounds of the invention as inhibitors of group 1B phospholipase A2 (PLA2) from human, mouse and porcine. A description of this assay is found in articles: Leslie, C C and Gelb, M H (2004) Methods in Molecular Biology “Assaying phospholipase A2 activity”, 284:229-242; Singer, A G, et al. (2002) Journal of Biological Chemistry “Interfacial kinetic and binding properties of the complete set of human and mouse groups I, II, V, X, and XII secreted phospholipases A2”, 277:48535-48549, which are incorporated herein as references.
(§2) In general, this assay used a phosphatidylmethanol substrate with a pyrene fluorophore on the terminal end of the sn-2 fatty acyl chain. Without being bound by theory, close proximity of the pyrenes from neighboring phospholipids in a phospholipid vesicle caused the spectral properties to change relative to that of monomeric pyrene. Bovine serum albumin was present in the aqueous phase and captured the pyrene fatty acid when it is liberated from the glycerol backbone owing to the PLA2-catalyzed reaction. However, a potent inhibitor can inhibit the liberation of pyrene fatty acid from the glycerol backbone. […] The effect of a given inhibitor and inhibitor concentration on human, mouse and porcine phospholipase was determined.
Recombinant human and mouse group 1B PLA2 were cloned and expressed in E. coli as insoluble inclusion bodies. The inclusion bodies were isolated and purified by sonicating cell pellet in lysis buffer (50 mM Tris-HCl pH 7.0, 250 mM NaCl, 0.5% Triton 100), centrifugation at 12,000×g, and washing three times in washing buffer (20 mM Tris-HCl pH 7.0, 250 mM NaCl, 0.5% Triton 100). […]
(§3) The following procedure was performed to evaluate the inhibitory potency of the evaluated compounds. • 1. […]

[3] = biological target: T2, human group 1B PLA2 (hps PLA2) (Homo sapiens, UniProt P04054); assay: Example 8 fluorimetric PLA2 inhibition assay (PPyrPM), human enzyme; type: biochemical
T2 construct: made in house; host or cells: E. coli
Source text: as §1
as §2, with “reaction.” for “reaction. However, a potent inhibitor can inhibit the liberation of pyrene fatty acid from the glycerol backbone.”, “determined. […]” for “determined.”
as §3

T1 sequence (Q9Z0Y2 23-146): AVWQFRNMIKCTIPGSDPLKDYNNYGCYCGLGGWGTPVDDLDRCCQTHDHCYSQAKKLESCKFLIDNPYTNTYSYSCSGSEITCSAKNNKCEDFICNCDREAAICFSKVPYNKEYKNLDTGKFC
T2 sequence (P04054 23-148): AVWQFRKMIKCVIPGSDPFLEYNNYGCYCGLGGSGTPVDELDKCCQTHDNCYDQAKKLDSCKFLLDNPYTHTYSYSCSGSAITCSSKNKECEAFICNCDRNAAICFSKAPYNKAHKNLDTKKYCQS

Cc1c(C(=O)C(N)=O)c2c(OCC(=O)NS(=O)(=O)CCCC(=O)O)cccc2n1Cc1ccccc1 [ILY-IV-40, 4-[2-(3-Aminooxalyl-1-benzyl-2-methyl-1H-indol-4-yloxy)-acetylsulfamoyl]-butyric acid]
effect in animals fed a low fat control diet [1]: No or little effect
IC50 [2]: 1360 nM
IC50 [3]: 390 nM

— patent US20090318492A1, “INDOLE COMPOUNDS HAVING C4-ACIDIC SUBSTITUENTS AND USE THEREOF AS PHOSPHOLIPASE-A2 INHIBITORS” (priority 2005, published 2009)
